The experiment concerns IL-6. Description: LPS-induced IL-6 expression in mouse bone marrow-derived dendritic cells, ELISA. It counts as cell-based. Particulars: DCs co-treated with LPS and BrDs at 20 μM. The source says:
For mouse bone marrow-derived DCs (BMDCs), five to six-week-old female C57BL/6JNarl mice were purchased from the National Laboratory Animal Center, Taiwan and kept under SPF conditions. BMDCs were generated from bone marrow cells of C57BL/6 mice as described previously (Yin S Y, Wang W H, Wang B X, Aravindaram K, Hwang P I, Wu H M, Yang N S. BMC genomics 2010, 11:612). In brief, bone marrow was isolated from femurs and tibiae which were then flushed with RPMI-1640 medium using a syringe with a 0.45-mm needle on Day 0. Red blood cells in suspension were lysed for […] with ACK lysing buffer (150 mM NH4Cl, 1.0 mM KHCO3, 0.1 mM EDTA). Bone marrow cells were suspended at a density of 1×10^7 cells/30 ml in RPMI-1640 containing 10% FBS, 2 mM L-glutamine, 1% of nonessential amino acids, 100 U/mL penicillin and 100 μg/mL streptomycin supplemented with 20 ng/mL of mGM-CSF in 15-cm dishes at 37° C. with 5% CO2. On day 2, two-thirds of the medium was removed and 30 mL fresh medium with mGM-CSF was added to the cells. On day 5, culture plates were gently swirled and the floating and loosely adherent cells were discarded. Aliquots of 75% culture media were replenished with 20 ng/mL mGM-CSF and 20 ng/mL mIL-4. On day 7, mouse BMDCs (95% pure CD11b and MHC II) were harvested and incubated in RPMI 1640 medium containing 1 mM sodium pyruvate, 0.1 mM nonessential amino acids, 100 U/ml penicillin, 100 μg/ml streptomycin, and supplemented with 10% fetal bovine serum (Invitrogen, Carlsbad, Calif.) for 24 h at 37° C. with or without test chemicals in the presence or absence of LPS (100 ng/ml).
BMDCs were treated with or without test chemicals in the presence or absence of LPS (100 ng/ml) for 24 h at 37° C. Aliquots of supernatants from DC cultures were assayed for IL-6 and TNF-α using commercial ELISA kits (R&D Systems, Minneapolis, Minn.) following the manufacturer's recommendations.
Several studies have reported that the secretion of specific cytokines, including IL-1β, TNF-α and IL-6 by keratinocytes and various immune cells is involved in cutaneous inflammation (Nestle F O, Di Meglio P, Qin J Z, Nickoloff B J. Nature reviews Immunology 2009, 9:679-691; De Vry C G, Valdez M, Lazarov M, Muhr E, Buelow R, Fong T, Iyer S. J Invest Dermatol 2005, 125:473-481; Cumberbatch M, Dearman R J, Kimber I. Immunology 1996, 87:513-518). In order to investigate the anti-inflammatory effect of BrD1 on cytokine expression, mouse bone marrow-derived dendritic cells were used to evaluate the inhibitory effect of BrD1 on LPS-induced expressions of TNF-α and IL-6. In our time-course study for expression of TNF-α and IL-6, after LPS stimulation, a high expression of TNF-α and IL-6 was maintained at 24 h (FIG. 6A). We therefore chose 24 h as the time point at which to assess the expression of TNF-α and IL-6.
Background: An ELISA detects its analyte on a solid surface through an enzyme-linked reagent.
As to `CCCCC(=O)O[C@H]1C[C@H](OC(C)=O)[C@@]2(C)[C@H]([C@H]1C)[C@H](OC(C)=O)[C@]13O[C@@]1(C)C(=O)O[C@H]3/C=C(/C)C[C@H](OC(=O)CCC)[C@@H]2OC(C)=O` [BrD1-5C], the “inhibition of LPS-induced IL-6 expression (structure-activity relationship)” value (“inhibition” for short) is “inhibitory activity gradually decreased”.

On to `CCCCCCC(=O)O[C@H]1C[C@H](OC(C)=O)[C@@]2(C)[C@H]([C@H]1C)[C@H](OC(C)=O)[C@]13O[C@@]1(C)C(=O)O[C@H]3/C=C(/C)C[C@H](OC(=O)CCC)[C@@H]2OC(C)=O` [BrD1-7C], for which the “inhibition” value was “inhibitory activity gradually decreased”.

`CCCCCC(=O)O[C@H]1C[C@H](OC(C)=O)[C@@]2(C)[C@H]([C@H]1C)[C@H](OC(C)=O)[C@]13O[C@@]1(C)C(=O)O[C@H]3/C=C(/C)C[C@H](OC(=O)CCC)[C@@H]2OC(C)=O` [BrD1-6C]: the “inhibition” value was “inhibitory activity gradually decreased”.

Take `CCCCCCCCCC(=O)O[C@H]1C[C@H](OC(C)=O)[C@@]2(C)[C@H]([C@H]1C)[C@H](OC(C)=O)[C@]13O[C@@]1(C)C(=O)O[C@H]3/C=C(/C)C[C@H](OC(=O)CCC)[C@@H]2OC(C)=O` [BrD1-10C]: the “inhibition” value was “inhibitory activity gradually decreased”.

Source of the values: patent US8530513B1, “Pharmaceutical uses of diterpene excavatolide B from a coral or an analogue thereof” (National Sun Yat-Sen University, priority 2012, dated 2013).
